Experimental data published in US20250059188A1, “ARYLSULPHONAMIDE COMPOUNDS” (Anaxis Pharma Pty Ltd, priority 2021, published 2025).

Columns and labels:
human RIPK3 = human RIPK3 (Homo sapiens (Human), UniProt Q9Y572); test: KINOMEscan binding assay, human RIPK3; conditions: equilibrium dissociation constant
Summary of the method: (§1)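 Compound dilutions (11 points, 3-fold, mostly from 30,000 nM, 1% DMSO final) competed with immobilized ligand for DNA- or phage-tagged protein, and bead-bound protein was measured by qPCR. Kd values came from Hill-equation fits with slope −1 (Levenberg-Marquardt).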

human MLKL (full length) = human MLKL (full length) (Homo sapiens (Human), UniProt Q8NB16); test: KINOMEscan binding assay, human MLKL (full length); conditions: equilibrium dissociation constant
Sequence of human MLKL (full length) (Q8NB16 whole entry): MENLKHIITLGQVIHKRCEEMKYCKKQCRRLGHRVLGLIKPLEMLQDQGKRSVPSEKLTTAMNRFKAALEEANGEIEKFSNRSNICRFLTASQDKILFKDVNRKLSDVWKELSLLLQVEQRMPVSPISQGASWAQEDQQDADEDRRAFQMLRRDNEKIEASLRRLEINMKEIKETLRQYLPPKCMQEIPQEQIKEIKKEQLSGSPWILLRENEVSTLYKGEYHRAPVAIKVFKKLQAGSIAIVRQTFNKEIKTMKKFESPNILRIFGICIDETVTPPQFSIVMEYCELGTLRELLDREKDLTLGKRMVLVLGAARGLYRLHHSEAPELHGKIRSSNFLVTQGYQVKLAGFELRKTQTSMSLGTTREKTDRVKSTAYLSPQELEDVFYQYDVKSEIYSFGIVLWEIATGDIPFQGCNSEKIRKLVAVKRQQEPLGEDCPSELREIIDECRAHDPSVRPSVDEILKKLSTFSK
Summary of the method: as §1

[1] = system: U937 human histiocytic leukemia cell line; test: Inhibition of TSQ induced necroptosis in U937 cells (CellTitre-Glo); conditions: Homo sapiens, U-937, TSQ cocktail (TNF, Smac mimetic, Q-VD-OPh), 48 hours, read-out: Inhibition of TSQ-induced necroptosis (IC50 cell-based assay)
Procedure: Cellular Assay: Screening Compounds for Inhibition of TSQ Induced Necroptosis, 384 Well Plate Format.
(§2) • Cell Line ID: U937 human histiocytic leukemia cell line. • Cell Concentration (cells/well): Final cell density is 20000 cells per well. • Cell growth medium: HT-RPMI medium+7.4% Fetal Bovine Serum (FBS). Cells are cultured in Corning 150 cm^2 tissue culture flasks with vented caps at 37° C./5% CO2. • Incubation: Plates were incubated at 37° C./5% CO2 in a humidified incubator for 48 hours following addition of compounds and death stimuli (TSQ cocktail). • Compound concentration: 36 μM starting concentration, 1:3 dilution, 10 point • DMSO final concentration (% v/v): 0.3%. Compounds in TSQ Cocktail (T: TNF; S: Smac Mimetic; Q: Q-VD-OPh) and their Final Concentrations: • hTNF-Fc (100 ng/ml)—produced by standard procedures as shown in Bossen et al., J. Biol. Chem., 2006, 281(20), 13964-13971. • Compound A (500 nM) —Smac mimetic, Tetralogic and SYNthesis med chem • Q-VD-OPh (10 μM) —MP Biomedicals
(§3) The cellular assay was carried out according to the following steps: • 1. Each well was prepared by sequential addition of: • a. DMSO (control; columns 1-2 and 23-24) or compound in DMSO—addition was performed using acoustic transfer of nL volumes of stock compound to give final test concentrations of 36, 12, 4, 1.3, 0.44, 0.148, 0.049, 0.016, 0.005 and 0.002 μM. All wells were backfilled with DMSO to a final total volume in the well of 100 nL. • b. Following compound/DMSO addition in step (a), 40 μL of cell suspension (5×10^5 cells/mL) was added to provide a final cell concentration of 20,000 cells per well, and • c. Following cell addition in step (b), 10 μL of 5×TSQ cocktail (except to positive controls; columns 1 and 23) was added to each well. • 2. After 48 hours, plate was removed from the 37° C. incubator and equilibrated to room temperature for 45 minutes. • 3. 15 μL of room temperature CellTitre-Glo2™ (Promega™) was added to each well. • 4. Shook plates for 2 minutes (˜600 rpm) and incubated at room temperature for 15 minutes to allow signal to stabilise. • 5. Read luminescence readout on a plate reader.
Percent viability was calculated for each compound according to equation (2): […]
(§4) 10 point titration curves were fitted with the 4 parameter logistic nonlinear regression model and the IC50 reported reflect the inflection point of the curve for curve fitting.
(§5) • Assay involving the TSQ cocktail (T: TNF; S: Smac mimetic; Q: Q-VD-OPh): TSQ treatment ensures that cells specifically undergo necroptotic cell death. TNF activates the TNF receptor, Smac mimetic directs the signal away from proinflammatory signaling and toward the RIPK1/RIPK3-mediated cell death pathways, and Q-VD-OPh ensures that the apoptotic response is blocked leaving only the programmed necrosis response. The compounds' activity (solution in DMSO) tested in this TSQ-induced assay was evaluated by determining the number of viable cells in culture by measuring the amount of ATP present as measured by CelltiterGlo. • Counter screen: In parallel, all compounds were tested for their ability to affect cell viability. The same U937 cells were treated with compound in DMSO without the TSQ cocktail. This counter screen enabled evaluation of off-target effects. In this case, cell viability was measured by CelltiterGlo.

human RIPK1 = human RIPK1 (Homo sapiens (Human), UniProt Q13546); test: KINOMEscan binding assay, human RIPK1; conditions: equilibrium dissociation constant
Sequence of human RIPK1 (Q13546 whole entry): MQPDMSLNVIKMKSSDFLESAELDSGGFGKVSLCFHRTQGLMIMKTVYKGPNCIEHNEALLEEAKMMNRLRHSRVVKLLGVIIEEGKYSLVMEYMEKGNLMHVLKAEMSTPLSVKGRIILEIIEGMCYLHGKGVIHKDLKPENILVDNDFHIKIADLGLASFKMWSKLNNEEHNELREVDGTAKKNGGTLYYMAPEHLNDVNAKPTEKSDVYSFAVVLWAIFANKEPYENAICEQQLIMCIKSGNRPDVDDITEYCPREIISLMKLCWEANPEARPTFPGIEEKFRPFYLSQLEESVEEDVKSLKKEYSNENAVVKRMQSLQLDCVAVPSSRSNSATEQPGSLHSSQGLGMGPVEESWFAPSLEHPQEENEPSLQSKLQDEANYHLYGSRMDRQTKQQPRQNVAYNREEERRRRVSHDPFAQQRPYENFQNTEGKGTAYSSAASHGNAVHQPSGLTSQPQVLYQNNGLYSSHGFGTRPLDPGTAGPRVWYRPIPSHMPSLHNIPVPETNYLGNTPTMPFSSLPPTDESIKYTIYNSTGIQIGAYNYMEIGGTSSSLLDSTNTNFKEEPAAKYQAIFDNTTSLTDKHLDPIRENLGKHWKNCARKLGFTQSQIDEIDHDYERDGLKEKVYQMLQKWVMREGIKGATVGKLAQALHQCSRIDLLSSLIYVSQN
Summary of the method: as §1

U937 cells = test: Counter screen: U937 cell viability without TSQ cocktail (off-target effect); set-up: species or system human; conditions: Homo sapiens, U-937, compound without TSQ cocktail, read-out: Off-target effect (IC50 cell-based assay)
Procedure: as §2, §3, §4, §5

Sequence of human RIPK3 (Q9Y572 whole entry): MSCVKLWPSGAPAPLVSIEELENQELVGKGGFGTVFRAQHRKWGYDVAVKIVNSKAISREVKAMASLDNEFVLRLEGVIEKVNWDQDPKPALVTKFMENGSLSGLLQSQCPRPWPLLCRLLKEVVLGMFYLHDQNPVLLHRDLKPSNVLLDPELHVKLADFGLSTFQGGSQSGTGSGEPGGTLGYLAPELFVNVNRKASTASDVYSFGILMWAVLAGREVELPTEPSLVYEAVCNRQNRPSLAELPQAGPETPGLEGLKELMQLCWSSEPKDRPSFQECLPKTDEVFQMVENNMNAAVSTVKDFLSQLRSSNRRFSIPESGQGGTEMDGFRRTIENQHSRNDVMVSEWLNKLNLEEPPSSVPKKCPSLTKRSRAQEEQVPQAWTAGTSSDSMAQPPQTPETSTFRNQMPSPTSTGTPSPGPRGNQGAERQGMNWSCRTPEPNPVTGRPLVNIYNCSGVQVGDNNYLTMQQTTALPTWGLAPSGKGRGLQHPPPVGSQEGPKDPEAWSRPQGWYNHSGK

C[C@H](Oc1cc(-c2cnn3c(-c4cnn(CCO)c4)cnc(N)c23)ccc1NS(=O)(=O)C(F)F)c1ccc(F)cc1 [Compound 37, (S)-N-(4-(4-amino-7-(1-(2-hydroxyethyl)-1H-pyrazol-4-yl)pyrazolo[1,5-a]pyrazin-3-yl)-2-(1-(4-fluorophenyl)ethoxy)phenyl)-1,1-difluoromethanesulfonamide]
Kd (human RIPK3): > 10 µM
Kd (human MLKL (full length)): < 0.001 µM
IC50 [1]: 0.01 to 1 µM
Kd (human RIPK1): > 10 µM
IC50 (U937 cells): > 10 µM

C[C@H](Oc1cc(-c2nn(C)c3c(-c4cnn(C5COC5)c4)cnc(N)c23)ccc1NS(=O)(=O)C(F)F)c1ccc(F)cc1 [Compound 38, (S)-N-(4-(4-amino-1-methyl-7-(1-(oxetan-3-yl)-1H-pyrazol-4-yl)-1H-pyrazolo[4,3-c]pyridin-3-yl)-2-(1-(4-fluorophenyl)ethoxy)phenyl)-1,1-difluoromethanesulfonamide]
Kd (human RIPK3): > 10 µM
Kd (human MLKL (full length)): < 0.001 µM
IC50 [1]: < 0.01 µM
Kd (human RIPK1): > 10 µM
IC50 (U937 cells): > 10 µM

C[C@H](Oc1cc(-c2cnn3c(-c4ccncc4)cnc(N)c23)ccc1NS(=O)(=O)C(F)F)c1ccc(F)cc1 [Compound 39, (S)-N-(4-(4-amino-7-(pyridin-4-yl)pyrazolo[1,5-a]pyrazin-3-yl)-2-(1-(4-fluorophenyl)ethoxy)phenyl)-1,1-difluoromethanesulfonamide]
Kd (human RIPK3): > 10 µM
Kd (human MLKL (full length)): < 0.001 µM
IC50 [1]: 0.01 to 1 µM
Kd (human RIPK1): > 10 µM
IC50 (U937 cells): > 10 µM

C[C@H](Oc1cc(-c2nn(C)c3c(-c4ccncn4)cnc(N)c23)ccc1NS(=O)(=O)C(F)F)c1ccc(F)cc1 [Compound 40, (S)—N-(4-(4-amino-1-methyl-7-(pyrimidin-4-yl)-1H-pyrazolo[4,3-c]pyridin-3-yl)-2-(1-(4-fluorophenyl)ethoxy)phenyl)-1,1-difluoromethanesulfonamide]
Kd (human RIPK3): > 10 µM
Kd (human MLKL (full length)): < 0.001 µM
IC50 [1]: < 0.01 µM
Kd (human RIPK1): > 10 µM
IC50 (U937 cells): > 10 µM

C[C@H](Oc1cc(-c2nn(C)c3c(-c4cnn(C5CCOC5)c4)cnc(N)c23)ccc1NS(=O)(=O)C(F)F)c1ccc(F)cc1 (stereo partly drawn) [Compound 41, N-(4-(4-amino-1-methyl-7-(1-(tetrahydrofuran-3-yl)-1H-pyrazol-4-yl)-1H-pyrazolo[4,3-c]pyridin-3-yl)-2-((S)-1-(4-fluorophenyl)ethoxy)phenyl)-1,1-difluoromethanesulfonamide]
Kd (human RIPK3): > 10 µM
Kd (human MLKL (full length)): < 0.001 µM
IC50 [1]: < 0.01 µM
Kd (human RIPK1): > 10 µM
IC50 (U937 cells): > 10 µM

C[C@H](Oc1cc(-c2nn(C)c3c(C4CCN(C)CC4)cnc(N)c23)ccc1NS(=O)(=O)C(F)F)c1ccc(F)cc1 [Compound 42, (S)—N-(4-(4-amino-1-methyl-7-(1-methylpiperidin-4-yl)-1H-pyrazolo[4,3-c]pyridin-3-yl)-2-(1-(4-fluorophenyl)ethoxy)phenyl)-1,1-difluoromethanesulfonamide]
Kd (human RIPK3): > 10 µM
Kd (human MLKL (full length)): 0.1 to 10 µM
IC50 [1]: 1 to 10 µM
Kd (human RIPK1): > 10 µM
IC50 (U937 cells): > 10 µM

C[C@H](Oc1cc(-c2nn(C)c3c(C4=CCOCC4)cnc(N)c23)ccc1NS(=O)(=O)C(F)F)c1ccc(F)cc1 [Compound 43, (S)-N-(4-(4-amino-7-(3,6-dihydro-2H-pyran-4-yl)-1-methyl-1H-pyrazolo[4,3-c]pyridin-3-yl)-2-(1-(4-fluorophenyl)ethoxy)phenyl)-1,1-difluoromethanesulfonamide]
Kd (human RIPK3): > 10 µM
Kd (human MLKL (full length)): 0.001 to 0.1 µM
IC50 [1]: 0.01 to 1 µM
Kd (human RIPK1): > 10 µM
IC50 (U937 cells): > 10 µM

C[C@H](Oc1cc(-c2nn(C)c3c(-c4cnn(C5CCOCC5)c4)cnc(N)c23)ccc1NS(=O)(=O)CC(F)(F)F)c1ccc(F)cc1 [Compound 44, (S)—N-(4-(4-amino-1-methyl-7-(1-(tetrahydro-2H-pyran-4-yl)-1H-pyrazol-4-yl)-1H-pyrazolo[4,3-c]pyridin-3-yl)-2-(1-(4-fluorophenyl)ethoxy)phenyl)-2,2,2-trifluoroethane-1-sulfonamide]
Kd (human RIPK3): > 10 µM
Kd (human MLKL (full length)): 0.001 to 0.1 µM
IC50 [1]: 0.01 to 1 µM
Kd (human RIPK1): > 10 µM
IC50 (U937 cells): > 10 µM

CCS(=O)(=O)Nc1ccc(-c2nn(C)c3c(-c4cnn(C5CCOCC5)c4)cnc(N)c23)cc1O[C@@H](C)c1ccc(F)cc1 [Compound 45, (S)-N-(4-(4-amino-1-methyl-7-(1-(tetrahydro-2H-pyran-4-yl)-1H-pyrazol-4-yl)-1H-pyrazolo[4,3-c]pyridin-3-yl)-2-(1-(4-fluorophenyl)ethoxy)phenyl)ethanesulfonamide]
Kd (human RIPK3): > 10 µM
Kd (human MLKL (full length)): 0.001 to 0.1 µM
IC50 [1]: 0.01 to 1 µM
Kd (human RIPK1): > 10 µM
IC50 (U937 cells): > 10 µM

C[C@H](Oc1cc(-c2nn(C)c3c(-c4ccnc(C(C)(C)C)c4)cnc(N)c23)ccc1NS(=O)(=O)C(F)F)c1ccc(F)cc1 [Compound 48, (S)-N-(4-(4-amino-7-(2-(tert-butyl)pyridin-4-yl)-1-methyl-1H-pyrazolo[4,3-c]pyridin-3-yl)-2-(1-(4-fluorophenyl)ethoxy)phenyl)-1,1-difluoromethanesulfonamide]
Kd (human RIPK3): > 10 µM
Kd (human MLKL (full length)): 0.001 to 0.1 µM
IC50 [1]: 1 to 10 µM
Kd (human RIPK1): > 10 µM
IC50 (U937 cells): > 10 µM

CC(C)n1nc(-c2ccc(NS(=O)(=O)C(F)F)c(O[C@@H](C)c3ccc(F)cc3)c2)c2c(N)ncc(-c3ccncc3)c21 [Compound 50, (S)-N-(4-(4-amino-1-isopropyl-7-(pyridin-4-yl)-1H-pyrazolo[4,3-c]pyridin-3-yl)-2-(1-(4-fluorophenyl)ethoxy)phenyl)-1,1-difluoromethanesulfonamide]
Kd (human RIPK3): > 10 µM
Kd (human MLKL (full length)): < 0.001 µM
IC50 [1]: 0.01 to 1 µM
Kd (human RIPK1): > 10 µM
IC50 (U937 cells): > 10 µM

CC(C)n1nc(-c2ccc(NS(=O)(=O)C(F)F)c(O[C@@H](C)c3ccc(F)cc3)c2)c2c(N)ncc(-c3cnn(C4CCOCC4)c3)c21 [Compound 51, (S)-N-(4-(4-amino-1-isopropyl-7-(1-(tetrahydro-2H-pyran-4-yl)-1H-pyrazol-4-yl)-1H-pyrazolo[4,3-c]pyridin-3-yl)-2-(1-(4-fluorophenyl)ethoxy)phenyl)-1,1-difluoromethanesulfonamide]
Kd (human RIPK3): > 10 µM
Kd (human MLKL (full length)): 0.001 to 0.1 µM
IC50 [1]: 0.01 to 1 µM
Kd (human RIPK1): > 10 µM
IC50 (U937 cells): > 10 µM

CC(C)n1nc(-c2ccc(NS(=O)(=O)C(F)F)c(O[C@@H](C)c3ccc(F)cc3)c2)c2c(N)ncc(-c3cnn(C)c3)c21 [Compound 52, (S)-N-(4-(4-amino-1-isopropyl-7-(1-methyl-1H-pyrazol-4-yl)-1H-pyrazolo[4,3-c]pyridin-3-yl)-2-(1-(4-fluorophenyl)ethoxy)phenyl)-1,1-difluoromethanesulfonamide]
Kd (human RIPK3): > 10 µM
Kd (human MLKL (full length)): 0.001 to 0.1 µM
IC50 [1]: 0.01 to 1 µM
Kd (human RIPK1): > 10 µM
IC50 (U937 cells): > 10 µM

C[C@H](Oc1cc(-c2nn(C)c3c(C4=CCCN(C)C4)cnc(N)c23)ccc1NS(=O)(=O)C(F)F)c1ccc(F)cc1 [Compound 55, (S)—N-(4-(4-amino-1-methyl-7-(1-methyl-1,2,5,6-tetrahydropyridin-3-yl)-1H-pyrazolo[4,3-c]pyridin-3-yl)-2-(1-(4-fluorophenyl)ethoxy)phenyl)-1,1-difluoromethanesulfonamide]
Kd (human RIPK3): > 10 µM
Kd (human MLKL (full length)): < 0.001 µM
IC50 [1]: 1 to 10 µM
Kd (human RIPK1): > 10 µM
IC50 (U937 cells): > 10 µM
